Measurements reported in patent US8592152B2, “Gene detection assay for improving the likelihood of an effective response to an EGFR antagonist cancer therapy” (Genentech, Inc., priority 2000, dated 2013).

System: metastatic breast cancer
Experiment: FISH/clinical outcome study: chemotherapy +/- Herceptin, 1st line therapy
Type: in vivo, human
Protocol: The Clinical Testing Assay (CTA) involves two separate IHC assays performed with either monoclonal antibodies 4D5 (after protease digestion of the formalin fixed sample) or CB11 (after heat treatment of the formalin fixed sample). Subjects were eligible if either assay was scored at 2+ or 3+. If both were performed, the final score was the higher of the two results. […] Thus, formalin-fixed cut sections stored between 2.5 and 4.5 years from 540 subjects provided the sample pool for this study.

Compound | Response rate of newly defined populations (2+/3+ population (469)) | Survival of newly defined populations (2+/3+ population (469)) [months] | Time to progression of newly defined populations (2+/3+ population (469)) [months] | Response rate of newly defined populations (3+ population (349)) | Survival of newly defined populations (3+ population (349)) [months] | Time to progression of newly defined populations (3+ population (349)) [months] | Response rate of newly defined populations (FISH+ population (240)) | Survival of newly defined populations (FISH+ population (240)) [months] | Time to progression of newly defined populations (FISH+ population (240)) [months]
CC(=O)O[C@H]1C(=O)[C@@]2(C)[C@H]([C@H](OC(=O)c3ccccc3)[C@]3(O)C[C@H](OC(=O)[C@H](O)[C@@H](NC(=O)c4ccccc4)c4ccccc4)C(C)=C1C3(C)C)[C@]1(OC(C)=O)CO[C@@H]1C[C@@H]2O [P, Paditaxol] | 17 | 18 | 2.7 | 17 | 18 | 3.0 | 14 | 14 | 3.2
adrinomycin and cyclophosphamide [AC] | 42 | 21 | 6.1 | 42 | 21 | 6.0 | 40 | 20 | 6.2
